In patent US20060135485A1, “Microbicidal compositions and their use” (priority 2002, published 2006):

What was measured:
Assay type in all cases: cell-based
[1] = system: Candida albicans (CA) ATCC 10231; experiment: MIC culture tube dilution test; conditions: pH 7.2±0.2, 72 hour incubation at 36° C.
Protocol: (§1) Microbiocides and microbiocidal properties were determined experimentally. Very well suited test methods are described in detail in the German Society for Hygiene and Microbiology (GGHM) for the examination of disinfectants. In order to determine the MIC, culture tube dilution tests were carried out according to the “regulations for the examination and evaluation of chemical disinfection procedures (Edition 1.1.81, procedures slightly modified)” using a […]-soya bean meal peptide medium. The dilution was carried out with water of standardised hardness without further agents such as surfactants. The adjustment of the pH values to 7.2±0.2 was carried out with 0.1 mol/NaOH or 0.1 mol/HCl. The gradation of test concentrations was made according to the concentration steps proposed by the GGHM. The evaluation was carried out after a 72 hour incubation at 36° C. [table] One part polyvinylamine, consisting of 95 wt % vinyl units and 5 wt % vinylformamide units with a K-value of 90 were mixed with 4.2 parts cyclohexyldiazeniumdioxy potassium. […] The effectiveness was determined according to the abovementioned methods. MIC stated here gives the minimal effective concentration, in which a.i. (active ingredient) means the active component.

[2] = system: Aspergillus niger (ASN) ATCC 16404; experiment: MIC culture tube dilution test; conditions: pH 7.2±0.2, 72 hour incubation at 36° C.
Protocol: as §1

[3] = system: Pseudomonas aeruginosa (PSA) ATCC 15442; experiment: MIC culture tube dilution test; conditions: pH 7.2±0.2, 72 hour incubation at 36° C.
Protocol: as §1

[4] = system: Proteus mirabilis (PRM) ATCC 14153; experiment: MIC culture tube dilution test; conditions: pH 7.2±0.2, 72 hour incubation at 36° C.
Protocol: as §1

[5] = system: Staphylococcus aureus (STA) ATCC 6538; experiment: MIC culture tube dilution test; conditions: pH 7.2±0.2, 72 hour incubation at 36° C.
Protocol: as §1

[6] = system: Escherichia coli (EC) ATCC 11229; experiment: MIC culture tube dilution test; conditions: pH 7.2±0.2, 72 hour incubation at 36° C.
Protocol: as §1

[7] = system: Pseudomonas aeruginosa ATCC 9027, Candida albicans ATCC 10231, Aspergillus niger ATCC 16404; experiment: Preservation loading test in styrene butadiene emulsions; conditions: sole active component, neutral conditions, typical polymer emulsion; bacteria, yeasts and moulds
Protocol: Styrene Butadiene Emulsions were inoculated with 1×10^6 of the test culture, stored for 7 days at 25° C. and then a semi-quantitative determination of colony forming units was carried out. This loading test was carried out with a representative bacteria (Pseudomonas aeruginosa ATCC 9027), a representative yeast (Candida albicans ATCC 10231) and a representative mould (Aspergillus niger ATCC 16404) over consecutive weeks until the product has been subjected to (at least) three separate loadings of each culture type. The concentration of preserving agent at which no recovery of the test organisms was observed is the end point of the test and adequacy of preservation is assumed.

`O=NN(O)C1CCCCC1.[K]` [KHDO, potassium salt of N′-hydroxy-N-cyclohexyl-diazenium oxide] was tested, and the “MIC Cyclohexyldiazeniumdioxy potassium [ppm a.i.] B” value [1] was 350 ppm a.i, the “MIC Cyclohexyldiazeniumdioxy potassium [ppm a.i.] B” value [2] was 175 ppm a.i and the “MIC Cyclohexyldiazeniumdioxy potassium [ppm a.i.] B” value [3] was 3000 ppm a.i. The “MIC Cyclohexyldiazeniumdioxy potassium [ppm a.i.] B” value [4] was 750 ppm a.i, the “MIC Cyclohexyldiazeniumdioxy potassium [ppm a.i.] B” value [5] was 750 ppm a.i and the “MIC Cyclohexyldiazeniumdioxy potassium [ppm a.i.] B” value [6] was 350 ppm a.i. For the same compound, the “Killing of spoilage microorganisms (in words)” value [7] was “able not only to inhibit but actively kill a representative range of spoilage microorganisms”.
